Here are results for 3 compounds from US8242170B2, “Use of cis-epoxyeicosatrienoic acids and inhibitors of soluble epoxide hydrolase to reduce cardiomyopathy” (The Regents of the University of California, priority 2005, dated 2012).

The structures appear in SMILES notation. “Also recorded” adds a separate entry of the source.

For series [1], the target named is T1, soluble epoxide hydrolase (sEH) (Homo sapiens, UniProt P34913).
T1 sequence (P34913 with tags, fused parts or gaps A5G/DEL257-257/G258W): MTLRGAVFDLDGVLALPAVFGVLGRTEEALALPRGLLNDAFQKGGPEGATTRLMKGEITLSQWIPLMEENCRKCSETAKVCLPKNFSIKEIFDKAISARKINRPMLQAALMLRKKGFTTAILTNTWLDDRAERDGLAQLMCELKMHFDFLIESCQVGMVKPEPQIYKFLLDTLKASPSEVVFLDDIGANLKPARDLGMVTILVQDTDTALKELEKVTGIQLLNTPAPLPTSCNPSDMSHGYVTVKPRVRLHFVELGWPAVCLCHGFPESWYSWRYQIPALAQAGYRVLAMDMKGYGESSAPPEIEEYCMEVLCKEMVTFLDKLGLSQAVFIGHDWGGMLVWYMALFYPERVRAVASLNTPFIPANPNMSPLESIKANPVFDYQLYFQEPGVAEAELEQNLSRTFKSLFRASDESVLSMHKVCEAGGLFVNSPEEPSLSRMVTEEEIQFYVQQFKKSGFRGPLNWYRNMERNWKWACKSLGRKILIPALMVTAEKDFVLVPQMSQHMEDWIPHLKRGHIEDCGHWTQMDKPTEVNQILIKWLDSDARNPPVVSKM
The experiment in a line: Inhibition of soluble epoxide hydrolase activity. Type of series: biochemical. The source says:
Any of a number of standard assays for determining epoxide hydrolase activity can be used to determine inhibition of sEH. For example, suitable assays are described in Gill, et al., Anal Biochem 131, 273-282 (1983); and Borhan, et al., Analytical Biochemistry 231, 188-200 (1995)). Suitable in vitro assays are described in Zeldin et al., J. Biol. Chem. 268:6402-6407 (1993). Suitable in vivo assays are described in Zeldin et al., Arch Biochem Biophys 330:87-96 (1996). […]
The enzyme also can be detected based on the binding of specific ligands to the catalytic site which either immobilize the enzyme or label it with a probe such as dansyl, fluoracein, luciferase, green fluorescent protein or other reagent. […] The enzyme also can be detected based on the generation of fluorescent products following the hydrolysis of the epoxide. […]

Another series is described as follows: Metabolic stability. Type of series: in vitro ADME.
Series [2] relates to TAC-mice (thoracic aortic constriction, cardiac hypertrophy). The series is described as follows: Thoracic aortic constriction (TAC) mouse model of pressure overload cardiac hypertrophy. The settings on record: for Hypertrophic response, H&E-stained histologic sections (FIG. 2): 3 weeks, compound 950 15 mg/kg twice a day, AUDA-BE 3 mg/kg twice a day, in drinking water; for Cardiac hypertrophy after drug treatment: sEH inhibitor in drinking water for three weeks. Type of series: in vivo, mouse (C57B1/6J). As for the experimental part: Ascending aortic constriction was performed in 8-week-old male C57B1/6J mice (Charles River, Wilmington, Mass.). Animals were anesthetized with intraperitoneal ketamine 50 mg/kg and xylazine 2.5 mg/kg, and aortic constriction was created via a left thoracotomy by placing a ligature securely around the ascending aorta and a 26-gauge needle and then removing the needle. Immediately after the surgery, animals with ascending aortic stenosis were randomized and placed in one of the following regimens for three weeks: (a) compound 950 in drinking water ([…]), (b) AUDA-BE in drinking water, or (c) no drug. Age-matched animals served as controls.
To assess systolic function, echocardiograms were performed using M-mode and two-dimensional measurements as described previously. The measurements represented the average of six selected cardiac cycles from at least two separate scans performed in random-blind fashion with papillary muscles used as a point of reference for consistency in level of scan. End diastole was defined as the maximal left ventricle diastolic dimension and end systole was defined as the peak of posterior wall motion. Fractional shortening (FS), a surrogate of systolic function, was calculated from left ventricle dimensions as follows: FS=((EDD−ESD)/EDD)×100%.
To compare myocyte size, hearts were removed and rinsed for 1 minute in 0.1 mol/L phosphate buffered saline (PBS) with 50 mmol/L KCl (pH 7.2) and subsequently fixed overnight at 4° C. in 4% paraformaldehyde prepared in PBS. Vibratome sections (100 μm) from similar areas of the left ventricles were stained in a 1:20 dilution of rhodamine phalloidin (Molecular Probes, Inc., Eugene, Oreg.) and imaged with a BioRad MRC1000 confocal scanning laser microscope (BioRad Laboratories, Hercules, Calif.). A minimum of 5 optical sections was collected from the free wall of the left ventricle of each animal with a Zeiss 60× NA 1.4 lens. All images used for myocyte measurements were collected with identical laser, iris, gain, and black level operating parameters. Myocyte widths were measured parallel to the direction of the sarcomeres from unbranched regions of the myocytes near an intercalated disk with the length/profile function. Data sets were then compared using Student t tests.
Thoracic aortic constrictions (“TACs”) were created in 8-week-old male C57B1/6J mice as described in Example 1, above, resulting in a chronic pressure overload induced cardiac hypertrophy. TAC-mice were randomized to receive either no therapy or one of two exemplar sEH inhibitors (compound 950 and AUDA-BE) in drinking water for a period of three weeks. […] This effect is independent of the anti-hypertensive action of the drugs, since the hearts were constantly exposed to the high afterload created by the aortic constriction.
All the mice were sacrificed at three weeks after the TAC was created.
FIG. 2 further compares hematoxylin and eosin (“H&E”)-stained histologic section of a sham-operated heart and of TAC-mouse hearts with or without sEHI treatment. […] We further assessed the chamber size and wall thickness in untreated TAC-mice compared to treated TAC-mice using echocardiography.

The subject of series [3] is neonatal mouse cardiac myocytes. The series is described as follows: Angiotensin II induced hypertrophy of primary neonatal mouse cardiac myocytes in culture. Type of series: cell-based, mouse (C57B1/6J). The settings on record: 48 hours of treatment with ANG II. As to the method: Single cardiac myocytes were isolated from 5 day old neonatal mice (C57B1/6J) as previously described (Nuss & Marban, J. Physiol. 479 (Pt 2):265-79 (1994); Chiamvimonvat et al., J. Physiol. 483 (Pt 2):307-18 (1995)). Mice were anesthetized with pentobarbital (40 mg/kg) intraperitoneally. Animals were sacrificed by decapitation and hearts excised under sterile conditions into a filter sterilized (0.2 μm) nominally Ca^2+-, bicarbonate-free Hanks HEPES-buffered solution, pH 7.4 at room temperature. Atrial and great vessel tissues were carefully removed. The ventricles were washed and minced in this Ca^2+-free buffered solution containing trypsin (Difco®, BD Diagnostic Systems, Sparks Md., 1.5 mg/ml), DNase (1 ml/100 ml of the enzyme solution). The tissues were then incubated with 2 ml of the enzyme solution and stirred continuously at 37° C. The supernatant was removed and the enzyme solution replaced at five-minute intervals. The supernatant obtained after the first 15 minutes was discarded. Thereafter, the supernatant was diluted 1:1 in bovine calf serum. The cells were centrifuged at 2000 r.p.m. for three minutes and resuspended in MEM culture medium (Invitrogen, Carlsbad, Calif.) containing 5% bovine calf serum (Invitrogen), penicillin G (sodium) and vitamin B12. The viability of the cells was assessed using the trypan blue dye exclusion test. […]

Series [4] concerns TAC-mice (thoracic aortic constriction, cardiac hypertrophy). The series is described as follows: Thoracic aortic constriction (TAC) mouse model of pressure overload cardiac hypertrophy. Type of series: in vivo, mouse (C57B1/6J). Particulars: after 3 and 6 weeks of follow up.

For `CCCCCCCCCCCCNC(=O)NC12CC3CC(CC(C3)C1)C2` [ADU, N-Adamantyl-N′-dodecyl urea], in series [1], the “Activity as inhibitor of sEH” value is reported as “particularly high activity on sEH”. For the same compound, the Metabolic stability result in “Metabolic stability” is given as “metabolically stable”.

Consider `CCCCOC(=O)CCCCCCCCCCCNC(=O)NC12CC3CC(CC(C3)C1)C2` [AUDA-BE, 12-(3-Adamantan-1-yl-ureido)dodecanoic acid butyl ester], for which, in series [2], the “Hypertrophic response, H&E-stained histologic sections (FIG. 2)” value is on record as “prevents the development of cardiac hypertrophy; also recorded: completely prevented” and the “Cardiac hypertrophy after drug treatment” value is on record as “almost complete resolution of cardiac hypertrophy”.

Take `CCOCCOCCOCCCCCNC(=O)NC12CC3CC(CC(C3)C1)C2` [compound 950, Adamantan-1-yl-3-{5-[2-(2-ethoxyethoxy)ethoxy]pentyl}urea]: the “Cell size of neonatal cardiac myocytes, ANG II plus compound versus ANG II alone” value in series [3] is recorded as “significant differences in the cell size”. Also, the “Development of cardiac hypertrophy and failure, echocardiography” value in series [4] is “can prevent the development of cardiac hypertrophy and failure”. In series [2], the “Hypertrophic response, H&E-stained histologic sections (FIG. 2)” value was “prevents the development of cardiac hypertrophy; also recorded: completely prevented” and the “Cardiac hypertrophy after drug treatment” value is “almost complete resolution of cardiac hypertrophy”. The “Development of cardiac hypertrophy and failure, M-mode echocardiography (FIG. 3)” value in series [2] (after three weeks of treatment) is “completely prevented the development of cardiac hypertrophy and failure”. Moreover, in series [2] (drinking water three weeks, sacrificed at three weeks after TAC), the “Cardiac hypertrophy, whole hearts (FIG. 1)” value is “no evidence of cardiac hypertrophy”. Moreover, in series [2] (left ventricle sections, three weeks), the “Loss of organization of the myofibrils (myofibril disarray), anti-alpha actinin immunofluorescence (FIG. 4)” value is recorded as “effects were prevented”.
